pIC50: −log10 of the molar value. Read-outs that look alike come from different tables or passages of the source.
Experiments:
Type in all cases: biochemical
Lck = target: T1, Lck (Homo sapiens, UniProt P06239); experiment: Kinase inhibition assay (33P transfer), Lck; conditions: read-out: Lck-1
T1 construct: Kinases are expressed as either kinase domains or full length constructs; made in house
Method in brief: (§1)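 Steps: express kinase as GST or polyHistidine fusion in E. coli or High Five cells; optionally co-express or mix with regulatory polypeptides; incubate with 33P-ATP and plate-attached poly(Glu,Tyr) 4:1 or poly(Arg,Ser) 3:1; wash with 0.5% phosphoric acid; count by liquid scintillation.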

PDGFRB = target: T2, PDGFRB (Homo sapiens, UniProt P09619); experiment: Kinase inhibition assay (33P transfer), PDGFRB; conditions: read-out: PDGFRB-1
T2 construct: Kinases are expressed as either kinase domains or full length constructs; made in house

ErbB2 = target: T3, ErbB2 (Homo sapiens, UniProt P04626); experiment: Kinase inhibition assay (33P transfer), ErbB2; conditions: read-out: ErbB2-2
T3 construct: Kinases are expressed as either kinase domains or full length constructs; made in house
Method in brief: (§2)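 Radiometric format: recombinant tagged kinase (catalytic domain or whole protein, sometimes combined with regulatory polypeptides) phosphorylates immobilised poly(Glu,Tyr) 4:1 or poly(Arg,Ser) 3:1 using [33P]ATP. Wells are washed in 0.5% phosphoric acid, then counted. IC50 is taken where substrate labelling falls by half.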

Zap-70 = target: T4, Zap-70 (Homo sapiens, UniProt P43403); experiment: Kinase inhibition assay (33P transfer), Zap-70; conditions: read-out: Zap-1
T4 construct: Kinases are expressed as either kinase domains or full length constructs; made in house
T4 sequence (P43403 1-619): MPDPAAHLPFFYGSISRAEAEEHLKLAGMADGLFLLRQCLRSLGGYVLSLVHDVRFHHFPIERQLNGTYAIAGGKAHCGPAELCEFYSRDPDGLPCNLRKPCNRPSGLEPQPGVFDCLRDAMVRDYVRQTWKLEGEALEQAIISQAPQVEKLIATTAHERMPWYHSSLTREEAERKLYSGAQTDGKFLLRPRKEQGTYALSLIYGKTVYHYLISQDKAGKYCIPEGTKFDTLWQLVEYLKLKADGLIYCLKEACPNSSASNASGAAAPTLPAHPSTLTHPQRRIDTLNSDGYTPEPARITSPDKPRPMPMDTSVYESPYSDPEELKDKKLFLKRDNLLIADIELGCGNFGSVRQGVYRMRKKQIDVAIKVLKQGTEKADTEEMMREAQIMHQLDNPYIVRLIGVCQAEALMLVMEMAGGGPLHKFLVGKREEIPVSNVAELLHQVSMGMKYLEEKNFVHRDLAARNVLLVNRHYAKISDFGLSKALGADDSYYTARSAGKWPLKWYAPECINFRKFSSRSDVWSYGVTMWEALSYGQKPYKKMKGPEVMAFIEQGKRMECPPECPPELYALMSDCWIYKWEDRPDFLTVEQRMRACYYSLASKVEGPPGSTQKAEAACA
Method in brief: as §1

Kdr = target: T5, Kdr (Homo sapiens, UniProt P35968); experiment: Kinase inhibition assay (33P transfer), Kdr
T5 construct: Kinases are expressed as either kinase domains or full length constructs; made in house
Method in brief: as §1

c-Met = target: T6, c-Met (Homo sapiens, UniProt P08581); experiment: Kinase inhibition assay (33P transfer), c-Met; conditions: Table 2, kinase inhibition class; read-out: Met-1
T6 construct: Kinases are expressed as either kinase domains or full length constructs; made in house
Method in brief: as §2

AKT = target: T7, AKT (Homo sapiens, UniProt Q9Y243); experiment: Kinase inhibition assay (33P transfer), AKT; conditions: Table 2, kinase inhibition class; read-out: AKT3-1
T7 construct: Kinases are expressed as either kinase domains or full length constructs; made in house
Method in brief: as §1

EGFR = target: T8, EGFR (Homo sapiens, UniProt P00533); experiment: Kinase inhibition assay (33P transfer), EGFR; conditions: Table 2, kinase inhibition class; read-out: EGFR-1
T8 construct: Kinases are expressed as either kinase domains or full length constructs; made in house
Method in brief: as §2

IGFR-1 = target: T9, IGFR-1 (Homo sapiens, UniProt P08069); experiment: Kinase inhibition assay, IGFR-1 (Table 2); conditions: Table 2, kinase inhibition class
T9 construct: Kinases are expressed as either kinase domains or full length constructs; made in house

Itk = target: T10, Itk (Homo sapiens, UniProt Q08881); experiment: Kinase inhibition assay (33P transfer), Itk; conditions: read-out: Itk-1
T10 construct: Kinases are expressed as either kinase domains or full length constructs; made in house
T10 sequence (Q08881 1-620): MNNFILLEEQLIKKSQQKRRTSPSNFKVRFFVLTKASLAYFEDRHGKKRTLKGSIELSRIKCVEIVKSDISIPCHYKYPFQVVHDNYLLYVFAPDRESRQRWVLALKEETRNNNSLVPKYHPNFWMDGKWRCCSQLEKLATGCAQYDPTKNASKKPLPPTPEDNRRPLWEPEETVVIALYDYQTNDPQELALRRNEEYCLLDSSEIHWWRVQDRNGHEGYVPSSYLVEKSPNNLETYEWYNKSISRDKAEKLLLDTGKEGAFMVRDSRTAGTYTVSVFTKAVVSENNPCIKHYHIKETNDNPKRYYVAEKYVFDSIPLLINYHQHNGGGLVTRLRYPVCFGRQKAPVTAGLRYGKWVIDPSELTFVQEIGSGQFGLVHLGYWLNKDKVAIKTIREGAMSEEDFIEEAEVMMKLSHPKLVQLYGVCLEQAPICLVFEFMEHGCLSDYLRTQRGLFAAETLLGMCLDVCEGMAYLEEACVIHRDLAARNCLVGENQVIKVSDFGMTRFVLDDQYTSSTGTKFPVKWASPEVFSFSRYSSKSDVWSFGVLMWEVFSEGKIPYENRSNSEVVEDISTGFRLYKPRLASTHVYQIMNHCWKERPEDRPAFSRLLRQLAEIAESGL
Method in brief: as §2

Tek = target: T11, Tek (Homo sapiens, UniProt Q02763); experiment: Kinase inhibition assay (33P transfer), Tek; conditions: read-out: Tek-1
T11 construct: Kinases are expressed as either kinase domains or full length constructs; made in house
Method in brief: as §2

T3 sequence (P04626 23-1255, species assumed): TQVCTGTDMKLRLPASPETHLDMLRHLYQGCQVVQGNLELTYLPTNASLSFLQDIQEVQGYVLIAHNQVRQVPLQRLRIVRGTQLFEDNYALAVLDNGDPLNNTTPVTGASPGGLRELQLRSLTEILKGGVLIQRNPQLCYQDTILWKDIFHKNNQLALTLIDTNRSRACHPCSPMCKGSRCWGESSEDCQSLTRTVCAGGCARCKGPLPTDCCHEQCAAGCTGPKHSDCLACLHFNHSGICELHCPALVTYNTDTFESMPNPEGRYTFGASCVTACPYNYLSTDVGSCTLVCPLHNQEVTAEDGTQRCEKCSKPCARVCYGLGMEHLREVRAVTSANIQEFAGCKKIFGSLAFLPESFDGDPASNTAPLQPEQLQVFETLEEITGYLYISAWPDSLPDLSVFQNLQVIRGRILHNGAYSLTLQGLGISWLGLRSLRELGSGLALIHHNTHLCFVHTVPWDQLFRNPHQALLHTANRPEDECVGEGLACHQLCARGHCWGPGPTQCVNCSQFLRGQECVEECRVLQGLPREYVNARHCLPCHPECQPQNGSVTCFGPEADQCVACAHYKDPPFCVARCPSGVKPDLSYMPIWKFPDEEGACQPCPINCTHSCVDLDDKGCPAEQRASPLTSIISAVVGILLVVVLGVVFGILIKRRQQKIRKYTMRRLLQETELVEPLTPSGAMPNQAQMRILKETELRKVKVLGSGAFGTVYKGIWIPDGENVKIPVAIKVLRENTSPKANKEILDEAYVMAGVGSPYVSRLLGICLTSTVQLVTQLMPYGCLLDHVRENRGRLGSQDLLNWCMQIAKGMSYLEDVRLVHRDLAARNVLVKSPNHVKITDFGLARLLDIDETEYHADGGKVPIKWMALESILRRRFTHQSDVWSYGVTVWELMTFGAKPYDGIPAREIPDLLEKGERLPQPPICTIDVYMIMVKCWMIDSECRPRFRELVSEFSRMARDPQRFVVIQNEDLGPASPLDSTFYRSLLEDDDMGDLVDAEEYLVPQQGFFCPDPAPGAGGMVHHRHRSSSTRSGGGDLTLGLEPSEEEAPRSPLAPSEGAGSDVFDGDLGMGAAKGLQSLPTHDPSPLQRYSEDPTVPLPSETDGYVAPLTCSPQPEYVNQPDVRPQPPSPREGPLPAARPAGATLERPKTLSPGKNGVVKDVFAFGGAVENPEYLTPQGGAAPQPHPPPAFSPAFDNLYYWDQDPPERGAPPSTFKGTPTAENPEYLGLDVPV
T1 sequence (P06239 whole entry, species assumed, the tested form may be a part): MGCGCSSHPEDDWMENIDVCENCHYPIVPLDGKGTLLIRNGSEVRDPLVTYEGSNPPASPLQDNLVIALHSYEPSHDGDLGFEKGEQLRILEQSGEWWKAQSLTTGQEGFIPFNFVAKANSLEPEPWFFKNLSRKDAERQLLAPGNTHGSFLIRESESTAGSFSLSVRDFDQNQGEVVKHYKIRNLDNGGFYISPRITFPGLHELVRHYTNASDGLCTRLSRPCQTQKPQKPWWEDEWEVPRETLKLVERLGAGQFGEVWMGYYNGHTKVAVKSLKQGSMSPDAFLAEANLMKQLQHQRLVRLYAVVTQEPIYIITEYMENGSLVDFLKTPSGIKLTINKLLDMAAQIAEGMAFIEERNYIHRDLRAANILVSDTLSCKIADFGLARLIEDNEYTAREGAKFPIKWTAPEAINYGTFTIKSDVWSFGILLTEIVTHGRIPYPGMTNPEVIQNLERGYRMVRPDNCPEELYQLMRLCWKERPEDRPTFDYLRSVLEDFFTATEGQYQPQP
T6 sequence (P08581 25-1390): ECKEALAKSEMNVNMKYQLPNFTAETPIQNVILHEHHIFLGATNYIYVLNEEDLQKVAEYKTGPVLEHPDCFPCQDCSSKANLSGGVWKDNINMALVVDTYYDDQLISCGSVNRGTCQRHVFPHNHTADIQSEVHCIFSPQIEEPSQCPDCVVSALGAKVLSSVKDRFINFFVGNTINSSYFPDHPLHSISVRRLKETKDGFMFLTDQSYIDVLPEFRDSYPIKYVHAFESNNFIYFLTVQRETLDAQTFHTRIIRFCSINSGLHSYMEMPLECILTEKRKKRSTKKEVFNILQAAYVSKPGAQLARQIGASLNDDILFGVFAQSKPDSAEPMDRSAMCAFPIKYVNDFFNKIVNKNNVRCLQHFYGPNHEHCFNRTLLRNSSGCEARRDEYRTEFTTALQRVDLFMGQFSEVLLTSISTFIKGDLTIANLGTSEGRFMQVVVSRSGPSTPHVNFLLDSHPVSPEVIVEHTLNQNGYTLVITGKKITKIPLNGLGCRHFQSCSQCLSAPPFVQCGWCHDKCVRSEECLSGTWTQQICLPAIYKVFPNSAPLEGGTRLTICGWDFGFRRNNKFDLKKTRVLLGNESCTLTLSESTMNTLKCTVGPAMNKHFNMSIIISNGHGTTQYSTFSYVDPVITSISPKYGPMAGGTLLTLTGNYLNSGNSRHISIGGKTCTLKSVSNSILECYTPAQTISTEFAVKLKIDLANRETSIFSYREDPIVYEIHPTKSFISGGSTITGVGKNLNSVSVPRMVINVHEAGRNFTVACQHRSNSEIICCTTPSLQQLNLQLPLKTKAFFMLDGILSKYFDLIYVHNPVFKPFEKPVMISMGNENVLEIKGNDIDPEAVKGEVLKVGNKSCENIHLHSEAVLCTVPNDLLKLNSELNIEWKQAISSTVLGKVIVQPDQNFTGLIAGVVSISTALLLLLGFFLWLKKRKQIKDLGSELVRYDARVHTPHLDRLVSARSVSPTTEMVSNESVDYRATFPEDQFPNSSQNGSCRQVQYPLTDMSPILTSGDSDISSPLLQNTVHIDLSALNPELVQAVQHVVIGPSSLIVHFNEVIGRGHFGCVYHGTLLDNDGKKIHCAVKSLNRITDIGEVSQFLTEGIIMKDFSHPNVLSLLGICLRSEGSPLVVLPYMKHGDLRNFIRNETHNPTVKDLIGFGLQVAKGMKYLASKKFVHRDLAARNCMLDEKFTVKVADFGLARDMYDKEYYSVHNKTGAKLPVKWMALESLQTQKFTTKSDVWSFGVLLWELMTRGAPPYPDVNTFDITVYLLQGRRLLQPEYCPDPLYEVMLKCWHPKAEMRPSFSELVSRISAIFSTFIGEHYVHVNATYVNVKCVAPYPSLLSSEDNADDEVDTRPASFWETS
T9 sequence (P08069 31-1367): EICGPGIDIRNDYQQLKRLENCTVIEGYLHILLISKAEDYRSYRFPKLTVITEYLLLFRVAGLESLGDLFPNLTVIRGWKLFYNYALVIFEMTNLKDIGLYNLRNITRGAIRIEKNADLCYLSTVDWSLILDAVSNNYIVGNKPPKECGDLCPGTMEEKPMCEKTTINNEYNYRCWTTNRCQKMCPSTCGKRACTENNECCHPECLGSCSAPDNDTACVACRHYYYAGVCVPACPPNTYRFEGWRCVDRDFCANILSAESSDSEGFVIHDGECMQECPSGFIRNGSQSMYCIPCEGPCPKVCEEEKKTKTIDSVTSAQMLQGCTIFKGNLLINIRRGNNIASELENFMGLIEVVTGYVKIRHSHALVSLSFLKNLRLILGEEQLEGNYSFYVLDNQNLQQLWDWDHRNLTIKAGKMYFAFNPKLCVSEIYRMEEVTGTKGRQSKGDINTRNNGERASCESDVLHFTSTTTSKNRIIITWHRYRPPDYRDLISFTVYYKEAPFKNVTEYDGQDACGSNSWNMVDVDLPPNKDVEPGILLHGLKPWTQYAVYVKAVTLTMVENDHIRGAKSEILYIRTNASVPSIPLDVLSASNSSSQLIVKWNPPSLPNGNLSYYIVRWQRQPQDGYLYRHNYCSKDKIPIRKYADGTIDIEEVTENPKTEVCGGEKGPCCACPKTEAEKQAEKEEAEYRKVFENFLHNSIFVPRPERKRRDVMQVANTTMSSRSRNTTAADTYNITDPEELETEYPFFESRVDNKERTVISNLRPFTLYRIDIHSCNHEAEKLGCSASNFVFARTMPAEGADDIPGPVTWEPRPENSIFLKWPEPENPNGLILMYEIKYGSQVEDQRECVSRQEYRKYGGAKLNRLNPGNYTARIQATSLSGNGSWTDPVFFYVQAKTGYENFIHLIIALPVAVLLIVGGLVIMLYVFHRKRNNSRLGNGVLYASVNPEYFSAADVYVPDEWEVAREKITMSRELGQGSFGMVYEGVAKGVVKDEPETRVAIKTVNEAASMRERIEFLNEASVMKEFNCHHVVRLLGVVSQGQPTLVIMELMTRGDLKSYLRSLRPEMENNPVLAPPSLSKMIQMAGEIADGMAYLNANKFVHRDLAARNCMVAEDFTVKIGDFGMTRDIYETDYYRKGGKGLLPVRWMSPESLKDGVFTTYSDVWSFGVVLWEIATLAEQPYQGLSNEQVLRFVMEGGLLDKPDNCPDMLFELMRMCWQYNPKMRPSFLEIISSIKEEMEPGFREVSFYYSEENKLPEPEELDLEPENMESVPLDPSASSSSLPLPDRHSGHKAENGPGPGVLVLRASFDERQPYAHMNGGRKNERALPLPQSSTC
T7 sequence (Q9Y243 whole entry, the tested form may be a part): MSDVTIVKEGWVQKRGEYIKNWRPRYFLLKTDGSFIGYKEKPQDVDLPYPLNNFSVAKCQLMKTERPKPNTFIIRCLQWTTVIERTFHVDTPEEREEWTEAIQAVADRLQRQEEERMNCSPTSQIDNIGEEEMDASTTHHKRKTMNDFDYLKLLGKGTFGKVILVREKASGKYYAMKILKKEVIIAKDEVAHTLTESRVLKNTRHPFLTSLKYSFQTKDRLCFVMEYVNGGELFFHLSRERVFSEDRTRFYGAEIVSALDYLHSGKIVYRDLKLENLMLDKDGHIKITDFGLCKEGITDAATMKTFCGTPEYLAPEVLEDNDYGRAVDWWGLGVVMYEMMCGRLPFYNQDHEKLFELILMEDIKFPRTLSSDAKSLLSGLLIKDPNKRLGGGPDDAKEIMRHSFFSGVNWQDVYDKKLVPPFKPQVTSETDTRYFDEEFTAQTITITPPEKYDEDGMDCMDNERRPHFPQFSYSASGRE

| Compound | pIC50 (Lck) | pIC50 (PDGFRB) | pIC50 (ErbB2) | pIC50 (Zap-70) | pIC50 (Kdr; read-out: KDR-1) | pIC50 (c-Met) | pIC50 (AKT) | pIC50 (EGFR) | pIC50 (IGFR-1) | pIC50 (Itk) | pIC50 (Tek) | pIC50 (Kdr; KDR-1) |
| --- | --- | --- | --- | --- | --- | --- | --- | --- | --- | --- | --- | --- |
| COc1cc(Nc2ncnc(NC(=O)NCc3ccccc3)n2)cc(OC)c1OC [Compound 660] | 5.23 to 6.01 | < 4.96 | 5.07 to 5.23 | < 4.96 | < 4.96 | < 4.96 | < 4.96 | 5.23 to 6.01 | < 4.96 | < 4.96 |  |  |
| COc1cc(Nc2ncnc(-n3c(N)nc4ccccc43)n2)ccc1OCCN1CCOCC1 [Compound 650] | 5.28 to 6.06 | 5.28 to 6.06 |  | < 5.01 | > 6.06 | 5.01 to 5.12 | < 5.01 | < 5.01 | > 6.06 | < 5.01 | 5.01 to 5.12 |  |
| COc1ccc(CNc2nc3ccccc3n2-c2ncnc(Nc3cc(OC)c(OC)c(OC)c3)n2)cc1OC [Compound 596] | < 5.08 | 5.19 to 5.36 | 5.36 to 6.13 | < 5.08 | 5.08 to 5.19 | < 5.08 | < 5.08 | 5.19 to 5.36 | < 5.08 | < 5.08 |  |  |
| COc1cc(Nc2ncnc(Nc3cc(OC)c(OC)c(OC)c3)n2)ccc1OCCN1CCOCC1 [Compound 601] | 5.33 to 6.11 | 5.33 to 6.11 | 5.33 to 6.11 | < 5.06 | 5.17 to 5.33 | < 5.06 | < 5.06 | 5.33 to 6.11 | < 5.06 | < 5.06 |  |  |
| COc1cc(Nc2ncnc(-n3c(NCc4ccc(N(C)C)cc4)nc4ccccc43)n2)cc(OC)c1OC [Compound 593] | 5.34 to 6.12 | 5.34 to 6.12 | 5.18 to 5.34 | < 5.07 | 5.34 to 6.12 | < 5.07 | < 5.07 | 5.18 to 5.34 | > 6.12 | < 5.07 |  |  |
| COc1cc(Nc2ncnc(NC(=O)NCCc3ccccc3)n2)cc(OC)c1OC [Compound 661] | < 4.97 | < 4.97 | < 4.97 | < 4.97 | 5.25 to 6.03 | < 4.97 | < 4.97 | < 4.97 | < 4.97 | < 4.97 |  |  |
| COc1cc(Nc2ncnc(Nc3ccc(NC(C)=O)c(C(F)(F)F)c3)n2)cc(OC)c1OC [Compound 617] | 5.30 to 6.08 | 5.30 to 6.08 | < 5.03 | < 5.03 | 5.30 to 6.08 | < 5.03 | < 5.03 | 5.14 to 5.30 | 5.14 to 5.30 | < 5.03 |  |  |
| CCN(CC)CCOc1cc(Nc2ncnc(-n3c(N)nc4ccccc43)n2)ccc1OC [Compound 649] | 5.27 to 6.05 | 5.27 to 6.05 |  | < 5.00 | 5.27 to 6.05 | < 5.00 | < 5.00 | < 5.00 | > 6.05 | 5.00 to 5.11 | 5.11 to 5.27 |  |
| COc1cc(Nc2ncnc(-n3c(NCc4ccc(Cl)cc4C)nc4ccccc43)n2)cc(OC)c1OC [Compound 597] | 5.35 to 6.12 | 5.18 to 5.35 | 5.35 to 6.12 | < 5.07 | 5.35 to 6.12 | < 5.07 | 5.18 to 5.35 | 5.07 to 5.18 | 5.07 to 5.18 | < 5.07 |  |  |
| COC(=O)c1ccc(-c2cc(Nc3ncnc(Nc4cccc(CC(=O)O)c4)n3)[nH]n2)cc1 [Compound 604] | 5.27 to 6.05 | 5.27 to 6.05 | 5.27 to 6.05 | 5.10 to 5.27 | 5.27 to 6.05 | > 6.05 | 5.10 to 5.27 | 5.27 to 6.05 | 5.27 to 6.05 | 5.27 to 6.05 |  |  |
| COc1ccc(Nc2ncnc(Nc3cc(OC)c(OC)c(OC)c3)n2)cc1OCCN1CCOCC1 [Compound 599] | 5.33 to 6.11 | 5.33 to 6.11 | 5.17 to 5.33 | < 5.06 | 5.17 to 5.33 | < 5.06 | < 5.06 | 5.06 to 5.17 | < 5.06 | < 5.06 |  |  |
| Nc1nc2ccccc2n1-c1ncnc(Nc2ccccc2)n1 [Compound 651] | 5.10 to 5.88 | 5.10 to 5.88 |  | < 4.83 | > 5.88 | 5.10 to 5.88 | < 4.83 | < 4.83 | > 5.88 | 5.10 to 5.88 | 4.94 to 5.10 |  |
| COc1cc(Nc2ncnc(-n3c(NCc4ccc(C(F)(F)F)cc4)nc4ccccc43)n2)cc(OC)c1OC [Compound 598] | < 5.09 | < 5.09 | 5.09 to 5.20 | < 5.09 | 5.36 to 6.14 | < 5.09 | < 5.09 | < 5.09 | < 5.09 | < 5.09 |  |  |
| Nc1nc2ccccc2n1-c1ncnc(Nc2ccccn2)n1 [Compound 659] | 4.94 to 5.10 | < 4.83 | < 4.83 | < 4.83 |  | < 4.83 | < 4.83 | < 4.83 | 5.10 to 5.88 | 5.10 to 5.88 |  | 4.94 to 5.10 |

Reference: patent US7074789B2, “Kinase inhibitors” (Amgen Inc., priority 1999, dated 2006)
